Experimental data published in PubChem BioAssay (NCI).
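Tested at 5 concentrations; 48 h exposure; 96-well plates; endpoints linearly interpolated, else capped at highest concentration. At the GI50, growth is halved. TGI: total growth inhibition.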

Experiments:
Experiment in all cases: NCI anticancer screen, dose series, 48 h
[1] = test system: EKVX NSCLC
[2] = test system: HL-60(TB) leukemia
[3] = test system: K-562 leukemia
[4] = test system: MOLT-4 leukemia
[5] = test system: NCI/ADR-RES ovarian
[6] = test system: OVCAR-3 ovarian
[7] = test system: OVCAR-4 ovarian
[8] = test system: SF-295 CNS
[9] = test system: A498 renal
[10] = test system: HOP-62 NSCLC

Compound | GI50 [1] | TGI [1] | GI50 [2] | TGI [2] | GI50 [3] | TGI [3] | GI50 [4] | TGI [4] | GI50 [5] | TGI [5] | GI50 [6] | TGI [6] | GI50 [7] | TGI [7] | GI50 [8] | TGI [8] | TGI [9] | TGI [10]
Fc1ccc(-c2ccc(-c3nnc(-c4cc(F)c(Cl)cc4Cl)o3)o2)cc1Cl | 26.5 µM | > 100 µM | > 100 µM | > 100 µM | 48.5 µM | > 100 µM | 24.2 µM | 85.2 µM | 35.8 µM | > 100 µM | 21.9 µM | 72.5 µM | 50.9 µM | > 100 µM | 30.2 µM | > 100 µM |  | 
c1ccc2sc(C3(N4CCCCC4)CCCC3)cc2c1 |  | 22 µM |  | 19.1 µM |  | 23.9 µM |  | 19.8 µM |  | 24.8 µM |  | 21.8 µM |  | 23.7 µM |  | 23.7 µM | 25.7 µM | 28.8 µM
COc1ccc(SC(C)(SC)c2ccccn2)c(OC)n1 (stereo unspecified) |  | > 100 µM |  | 28.3 µM |  | > 100 µM |  | > 100 µM |  | > 100 µM |  | > 100 µM |  | > 100 µM |  | > 100 µM | > 100 µM | > 100 µM
C[C@]12CC(c3ccccc3O1)C(C(=O)NC13CC4CC(CC(C4)C1)C3)C(=O)N2 (stereo partly specified) |  | 19.3 µM |  |  |  | 30.4 µM |  | 36.7 µM |  | 55.6 µM |  | > 100 µM |  | > 100 µM |  | > 100 µM | > 100 µM | > 100 µM
CC(=O)OCC1OC(O[C@@H]2c3c(O)c4c(c(O)c3C3=C(NN(c5ccc([N+](=O)[O-])cc5[N+](=O)[O-])[Se]3=O)[C@@]2(C)O)C(=O)c2ccccc2C4=O)C(OC(C)=O)C(OC(C)=O)C1OC(C)=O (stereo partly specified) |  | 0.677 µM |  |  |  | 0.431 µM |  | 0.23 µM |  | 3.86 µM |  | 0.336 µM |  | 0.634 µM |  | 1 µM | 1.11 µM | 0.714 µM
O=S(=O)(O)c1c(N=Nc2c(O)ccc3ccccc23)ccc2ccccc12 |  | > 100 µM |  |  |  | > 100 µM |  | > 100 µM |  | > 100 µM |  | > 100 µM |  | > 100 µM |  | > 100 µM | > 100 µM | > 100 µM
O=C1c2ccccc2-c2ccc(N=[N+]([O-])c3ccc4c(c3)C(=O)c3ccccc3-4)cc21 |  | > 100 µM |  | > 100 µM |  | > 100 µM |  | > 100 µM |  | > 100 µM |  | > 100 µM |  | > 100 µM |  | > 100 µM | > 100 µM | > 100 µM
COC(=O)C1=CC[C@@H]2C(C(=O)O)=CO[C@@H](OC3OC(CO)C(O)C(O)C3O)[C@H]12 (stereo partly specified) |  | > 300 µM |  | > 300 µM |  | > 300 µM |  | > 300 µM |  | > 300 µM |  | > 300 µM |  | > 300 µM |  | > 193 µM | > 30 µM | > 300 µM
C=C1C(=O)OC2C1C(OC(=O)/C(C)=C/C)CC1(C)C(=O)CCC(=C)C21 (stereo unspecified) |  | 33.8 µM |  |  |  |  |  | > 26.5 µM |  | 33.8 µM |  | 19.7 µM |  | 30.3 µM |  | 35.8 µM | 34 µM | 30.5 µM
N#C/C=C1\C=CC(O)C(O)C1OC1OC(CO)C(O)C(O)C1O (stereo unspecified) |  | > 100 µM |  | > 100 µM |  | > 100 µM |  | > 100 µM |  | > 100 µM |  | > 100 µM |  | > 100 µM |  | > 100 µM | > 100 µM | > 100 µM
